Test results reported in patent US20150031686A1, “PHENYL-OXAZOLYL DERIVATIVES, PREPARATION METHOD THEREOF, AND RELATED APPLICATION OF THE PHENYL-OXAZOLYL DERIVATIVES AS AN IMPDH INHIBITOR” (INSTITUTE OF MEDICINAL BIOTECHNOLOGY, CHINESE ACADEMY OF …, priority 2012, published 2015).
In brackets after ≈: the same amount, converted by molar mass.

What was measured:
[1] = test system: Coxsackie virus type B6 (COX-B6); assay: Anti-Coxsackie virus type B6 (COX-B6) activity, CPE in Vero cells; assay type: cell-based; details: Reed-Muench
Protocol: (§1) With Vero (African green monkey kidney) cells as viral hosts, inhibitory effects of the compounds of present invention on the grades of pathological lesions by coxsackievirus B3 (COX-B3), B6 (COX-B6) viruses in Vero cells were determined. The measured results of viral inhibitory activity of the compounds are shown in Table 3 and Table 4; wherein RBV is the control drug ribavirin. The inhibitory activities of the measured compounds against coxsackievirus B3, B6 were stronger than the control.
(§2) Screening of Anti-B3, B6 Type Coxsackie Viruses (COX-B3, COX-B6) Activity of the Samples
(§3) Prepare stock solutions of COX-B3 (or COX-B6) virus strains as well as tested compounds in DMSO before use. Before tests, dilute the stock solution with culture solution into a certain concentration and then dilute 3 times to make a total of eight dilutions. Use ribavirin (RBV) as positive control. Test procedures are as follows: seed Vero cells into 96-well culture plates, infect with 10^−5 Coxsackie virus of B3 (or B6) type, 24 hours later; adsorb subsequently for 2 hours, then discard the virus solution, add in the sample compounds and the positive control according to the abovementioned dilutions, set cell control wells and virus control wells simultaneously. When the cytopathic effect (CPE) of cells in the virus control wells reach 4+, observe CPE of the cells in each group. Use Reed-Muench method to calculate 50% inhibitory concentration (IC50) of the sample compounds against coxsackie virus B3 (or B6) type.

[2] = test system: Coxsackie virus type B3 (COX-B3); assay: Anti-Coxsackie virus type B3 (COX-B3) activity, CPE in Vero cells; assay type: cell-based; details: Reed-Muench
Protocol: as §1, §2, §3

Compound | IC50 [1] [µg/mL] | IC50 [2] [µg/mL] | IC50, anti-Coxsackie virus type B3 (COX-B3) [2] [µg/mL]
COc1cc(NCc2cccnc2Cl)ccc1-c1cnco1 [Compound 59, N-(2-chloropyridin-3-ylmethyl)-3-methoxy-4-(oxazol-5-yl) aniline] | 1.05 (≈ 3.33 µM) | 1.9 (≈ 6.02 µM) | –
COc1ccc(CNc2ccc(-c3cnco3)c(OC)c2)cn1 [Compound 60, N-(6-methoxy-pyridin-3-ylmethyl)-3-methoxy-4-(oxazol-5-yl) aniline] | 3.15 (≈ 10.1 µM) | 0.57 (≈ 1.83 µM) | –
COc1cc(NN=C(C#N)C#N)ccc1-c1cnco1 [Compound 66] | 4.28 (≈ 16 µM) | 1.43 (≈ 5.35 µM) | –
COc1ccc2[nH]cc(CNc3ccc(-c4cnco4)c(OC)c3)c2c1 [Compound 52, N-(5-methoxy-1H-indol-3-ylmethyl)-3-methoxy-4-(oxazol-5-yl) aniline] | > 2.47 | 3.25 (≈ 9.3 µM) | –
COc1cc(N(CCc2cc3ccccc3s2)C(=O)C(C)Br)ccc1-c1cnco1 (stereo not shown) [Compound 80, N-(2-benzothien-2-yl-ethyl)-N-(3-methoxy-4-oxazol-5-yl)-2-bromopropionamide] | – | 0.24 (≈ 0.494 µM) | –
COc1cc(NS(C)(=O)=O)ccc1-c1cnco1 [Compound 68] | 7.41 (≈ 27.6 µM) | 1.53 (≈ 5.7 µM) | –
Cc1ccc(-c2cnco2)cc1NCc1c(O)ccc2ccccc12 [Compound 79, 1-(2-methyl-5-oxazol-5-ylanilino) methyl-naphthol-2] | – | 0.35 (≈ 1.06 µM) | –
COc1cc(NCCc2ccc(Br)s2)ccc1-c1cnco1 [Compound 73, N-[2-(5-bromothien-2-yl)-ethyl]-3-methoxy-4-(oxazol-5-yl) aniline] | – | 0.35 (≈ 0.923 µM) | –
C#CCN(Cc1cc(CC)sc1C)c1ccc(-c2cnco2)c(OC)c1 [Compound 13, N-(5-ethyl-2-methylthien-3-ylmethyl)-N-(3-methoxy-4-oxazole-5-phenyl) propyn-2-ylamine] | – | – | 0.30 (≈ 0.819 µM)
COc1cc(NCc2ccc3c(c2)Sc2ccccc2N3C)ccc1-c1cnco1 [Compound 88, N-(10-methyl-10H-phenothiazin-3-ylmethyl)-3-methoxy-4-oxazol-5-yl aniline] | – | 0.36 (≈ 0.866 µM) | –
NC(=O)c1ncn([C@@H]2O[C@H](CO)[C@@H](O)[C@H]2O)n1 [RBV, ribavirin, reference compound] | 222 (≈ 910 µM) | 222 (≈ 910 µM) | –
COc1cc(/N=C/c2ccc(F)cc2)ccc1-c1cnco1 [Compound 64, N-(4-Fluorophenylmethylidene)-3-methoxy-4-(oxazol-5-yl)-aniline] | 17.2 (≈ 58.2 µM) | 4.28 (≈ 14.4 µM) | –
COc1ccc(-c2cnco2)cc1NCc1ccc(CCl)s1 [Compound 24, N-(5-chloromethylthien-2-ylmethyl)-2-methoxy-5-(oxazol-5-yl) aniline] | – | 0.57 (≈ 1.7 µM) | –
COc1cc(NS(=O)(=O)c2ccc(C)cc2)ccc1-c1cnco1 [Compound 69] | – | 0.98 (≈ 2.85 µM) | –
CCc1sc(CNc2ccc(-c3cnco3)c(OC)c2)cc1Br [Compound 97, N-(4-bromo-5-ethylthien-2-ylmethyl) 3-methoxy-4-(oxazol-5-yl) aniline] | – | 0.23 (≈ 0.585 µM) | –
COc1ccc(-c2cnco2)cc1NCc1ccc(-c2ccccc2)s1 [Compound 26, N-(5-phenylthien-2-ylmethyl)-2-methoxy-5-(oxazol-5-yl) aniline] | – | 0.57 (≈ 1.57 µM) | –
COc1cc(NCCc2nnc3ccccc3c2Cl)ccc1-c1cnco1 [Compound 81, N-[2-(4-chlorocinnolin-3-yl)-ethyl]-3-methoxy-4-(oxazol-5-yl) aniline] | – | 0.29 (≈ 0.761 µM) | –
COc1ccc(-c2cnco2)cc1NCc1cnn(-c2ccccc2)n1 [Compound 28, N-(2-phenyl-2H-1,2,3-triazol-4-ylmethyl)-(2-methoxy-5-oxazole-5-yl) aniline] | – | 1.23 (≈ 3.54 µM) | –
COc1cc(NS(=O)(=O)c2cccs2)ccc1-c1cnco1 [Compound 98, N-(thien-2-ylsulfonyl)-3-methoxy-4-oxazole-5-yl aniline] | – | 0.88 (≈ 2.62 µM) | –
COc1cc(NC/C=C/c2ccoc2)ccc1-c1cnco1 [Compound 105, N-(furan-3-ylpropen-1-yl)-3-methoxy-4-oxazol-5-yl aniline] | – | 1.23 (≈ 4.15 µM) | –
CCC(=O)N(Cc1csc(C)c1)c1cc(-c2cnco2)ccc1OC [Compound 32] | – | 0.68 (≈ 1.91 µM) | –
COc1cc(CNCc2ccc(C)s2)ccc1-c1cnco1 [Compound 76, N-(5-methylthien-2-ylmethyl)-3-methoxy-4-(oxazol-5-yl) benzylamine] | – | 0.24 (≈ 0.763 µM) | –
COc1cc(NCC2=C(Cl)c3cc(Cl)ccc3SC2)ccc1-c1cnco1 [Compound 83, N-(4,6-dichloro-2H-sulfurbenzopyran-3-ylmethyl)-3-methoxy-4-(oxazol-5-yl) aniline] | – | 0.42 (≈ 1 µM) | –
COc1cc(NCc2ccc3c(c2)CCO3)ccc1-c1cnco1 [Compound 100, N-(2,3-dihydobenzofuro-5-ylmethyl)-3-methoxy-4-(oxazol-5-yl) aniline] | – | 0.46 (≈ 1.43 µM) | –

Compound | IC50 [1] [µg/mL] | IC50 [2] [µg/mL] | IC50, anti-Coxsackie virus type B3 (COX-B3) [2] [µg/mL]
COc1ccc(-c2cnco2)cc1NCc1csc(Cl)c1 [Compound 34, N-(5-chlorothien-3-ylmethyl)-2-methoxy-5-(oxazol-5-yl) aniline] | – | 0.57 (≈ 1.78 µM) | –
COc1ccc(-c2cnco2)cc1NCc1cccnn1 [Compound 38, N-(pyridazin-3-yl-methyl)-2-methoxy-5-oxazol-5-yl aniline] | – | 0.88 (≈ 3.12 µM) | –
COc1ccc(-c2cnco2)cc1NCc1csc(Br)c1 [Compound 35, N-(5-bromothien-3-ylmethyl)-2-methoxy-5-(oxazol-5-yl) aniline] | – | 0.57 (≈ 1.56 µM) | –
COc1ccc(-c2cnco2)cc1/N=C/c1cc(Cl)cs1 [Compound 29, N-(4-chlorothien-2-ylmethylene)-2-methoxy-5-(oxazol-5-yl)-aniline] | – | 10.7 (≈ 33.5 µM) | –
COc1cc(NC/C=C(/C)CCC=C(C)C)ccc1-c1cnco1 [Compound 71, N-(3,7-dimethyl-octa-2,6-dienyl)-3-methoxy-4-(oxazol-5-yl) aniline] | > 0.82 | 1.25 (≈ 3.83 µM) | –
COc1ccc(-c2cnco2)cc1NCc1ccc(-c2cccc(Cl)c2)o1 [Compound 46, N-[5-(3-chlorophenyl)-furan-2-ylmethyl]-2-methoxy-5-(oxazol-5-yl) aniline] | – | 0.76 (≈ 2 µM) | –
COc1cc(CNCc2csc3ccccc23)ccc1-c1cnco1 [Compound 85, N-(benzothien-3-ylmethyl)-3-methoxy-4-(oxazol-5-yl) benzylamine] | – | 0.44 (≈ 1.26 µM) | –
COc1cc(NCc2ncc(Cl)nc2Cl)ccc1-c1cnco1 [Compound 44, N-(3,5-dichloroperazin-2-ylmethyl)-3-methoxy-4-(oxazol-5-yl) aniline] | – | 0.69 (≈ 1.96 µM) | –
COc1cc(NCc2cccc3c2oc2ccccc23)ccc1-c1cnco1 [Compound 75, N-(dibenzofuran-4-ylmethyl)-3-methoxy-4-(oxazol-5-yl) aniline] | – | 0.45 (≈ 1.21 µM) | –
COc1cc(NCCc2noc3ccccc23)ccc1-c1cnco1 [Compound 74, N-(1,2-benzisoxazol-3-ylethyl)-3-methoxy-4-(oxazol-5-yl) aniline] | – | 0.63 (≈ 1.88 µM) | –
COc1cc(-c2cnco2)c(NCc2ccnc3ccccc23)cc1O [Compound 58, 2-methoxy-4-(oxazol-5-yl)-5-[(quinolin-4-ylmethyl)-amino] phenol] | – | 3.22 (≈ 9.27 µM) | –
COc1cc(NCc2cncn2C)ccc1-c1cnco1 [Compound 17, N-(1-methyl-1H-imidazol-5-ylmethyl)-3-methoxy-4-(oxazol-5-yl) aniline] | – | 2.56 (≈ 9 µM) | –
COc1ccc(-c2cnco2)cc1NCc1c(C)nn(C)c1Cl [Compound 27, N-(5-chloro-1,3-dimethyl-1H-pyrazol-4-ylmethyl)-2-methoxy-5-(oxazol-5-yl) aniline] | – | 1.47 (≈ 4.42 µM) | –
COc1cc(/N=C/c2csc(C)c2)ccc1-c1cnco1 [Compound 19, N-(5-methylthien-3-ylmethylene)-3-methoxy-4-(oxazol-5-yl) aniline] | – | 12.8 (≈ 43 µM) | –
COc1cc(CNCc2ccc(Cl)s2)ccc1-c1cnco1 [Compound 77, N-(5-chlorothien-2-ylmethyl)-3-methoxy-4-(oxazol-5-yl) benzylamine] | – | 0.35 (≈ 1.05 µM) | –
COc1cc(NCc2ccc(C(C)=O)s2)ccc1-c1cnco1 [Compound 101, N-(5-acetylthien-2-ylmethyl)-3-methoxy-4-oxazole-5-yl aniline] | – | 0.48 (≈ 1.46 µM) | –
COc1ccc(-c2cnco2)cc1N [Compound 67, 2-methoxy-5-(oxazol-5-yl) aniline] | – | 1.88 (≈ 9.88 µM) | –
COc1cc(NCc2ccc(N3CCC(O)CC3)s2)ccc1-c1cnco1 [Compound 103] | – | 0.4 (≈ 1.04 µM) | –
Clc1cc(CNCc2cccc3nsnc23)ccc1-c1cnco1 [Compound 91, N-(benzo[1,2,5]-thiadiazol-4-ylmethyl)-3-chloro-4-oxazol-5-yl benzylamine] | – | 0.28 (≈ 0.785 µM) | –
Clc1cc(NCc2cccc3c2sc2ccccc23)ccc1-c1cnco1 [Compound 90, N-dibenzothien-4-ylmethyl-3-chloro-4-oxazol-5-yl aniline] | – | 0.26 (≈ 0.665 µM) | –
COc1cc(NCc2ccc(CO)o2)ccc1-c1cnco1 [Compound 96] | – | 1.43 (≈ 4.76 µM) | –
COc1cc(NS(=O)(=O)c2cc([N+](=O)[O-])c(Cl)s2)ccc1-c1cnco1 [Compound 99, N-(5-chloro-4-nitro-thien-2-ylsulfonyl)-3-methoxy-4-oxazole-5-yl aniline] | – | 0.78 (≈ 1.88 µM) | –
COc1cc(NCCc2ccc(C)s2)ccc1-c1cnco1 [Compound 72, N-[2-(5-methylthien-2-yl)-ethyl]-3-methoxy-4-(oxazol-5-yl) aniline] | – | 0.44 (≈ 1.4 µM) | –
